Laboratory results taken from ChEMBL document CHEMBL3046881, “Precocious Metamorphosis-Inducing Activity of 1-Substituted Imidazoles” (1996).

What was measured:
Assay type in all cases: functional
Bombyx mori [1] = experiment: Induction of precocious metamorphosis-inducing activity against fourth-instar larvae of Bombyx mori Shunrei x shogetsu at >80 ug treated topically
Bombyx mori [2] = experiment: Induction of precocious metamorphosis-inducing activity against fourth-instar larvae of Bombyx mori Shunrei x shogetsu compound treated topically
Bombyx mori [3] = experiment: Induction of precocious metamorphosis-inducing activity against fourth-instar larvae of Bombyx mori Shunrei x shogetsu at >160 ug treated topically
Bombyx mori [4] = experiment: Induction of precocious metamorphosis-inducing activity against fourth-instar larvae of Bombyx mori Shunrei x shogetsu at 40 ug treated topically
Bombyx mori [5] = experiment: Induction of precocious metamorphosis-inducing activity against fourth-instar larvae of Bombyx mori Shunrei x shogetsu at 40 ug treated topically in presence of 0.01 ug tebufenozide
Bombyx mori [6] = experiment: Induction of precocious metamorphosis-inducing activity against fourth-instar larvae of Bombyx mori Shunrei x shogetsu at 40 ug treated topically in presence of 10 ug methoprene
Bombyx mori [7] = experiment: Induction of precocious metamorphosis-inducing activity against fourth-instar larvae of Bombyx mori Shunrei x shogetsu at >40 ug treated topically

| Compound | Activity (Bombyx mori [1]) | ED50 (Bombyx mori [2]) | also measured |
| --- | --- | --- | --- |
| CCCCOc1ccc(-n2ccnc2)cc1 | 0% | >80 µg | – |
| CC(C)(C)c1ccc(OCCCn2ccnc2)cc1 | 20% | >80 µg | – |
| CCc1ccc(OCCn2ccnc2)cc1 | – | >160 µg | Activity (Bombyx mori [3]): 11% |
| c1ccc(OCCCn2ccnc2)cc1 | 0% | >80 µg | – |
| CCc1cccc(OCCCn2ccnc2)c1 | – | 36 µg | – |
| c1ccc(Oc2ccc(OCCCn3ccnc3)cc2)cc1 | 0% | >80 µg | – |
| c1ccc(COc2ccc(OCCCn3ccnc3)cc2)cc1 | – | >160 µg | Activity (Bombyx mori [3]): 0% |
| CCCCCCOc1ccc(OCCCn2ccnc2)cc1 | – | 36 µg | – |
| CCCCOc1ccc(OCCCn2ccnc2)cc1 | – | 27 µg | – |
| CCC(C)c1ccc(OCCCn2ccnc2)cc1 (stereo not given) | – | 91 µg | – |
| CCCc1ccc(OCCCn2ccnc2)cc1 | – | 16 µg | Activity (Bombyx mori [4]): 100%; Activity (Bombyx mori [5]): 0%; Activity (Bombyx mori [6]): 0% |
| Clc1ccc(OCCCn2ccnc2)cc1 | 11% | >80 µg | – |
| CCc1ccccc1OCCCn1ccnc1 | 0% | >80 µg | – |
| CCc1ccc(OCCCCn2ccnc2)cc1 | – | >160 µg | Activity (Bombyx mori [3]): 20% |
| CCc1ccc(OCCCn2ccnc2)cc1 | – | 17 µg | – |
| CCCCCCCCCCOc1ccc(-n2ccnc2)cc1 | 33% | >80 µg | – |
| CCCCCCOc1ccc(-n2ccnc2)cc1 | – | 63 µg | – |
| CCCCCCCCOc1ccc(-n2ccnc2)cc1 | – | 40 µg | – |
| CC(C)=CCCC(C)CCn1ccnc1 (stereo not given) | – | >40 µg | Activity (Bombyx mori [7]): 20% |
| CCCCCCCCn1ccnc1 | – | >40 µg | Activity (Bombyx mori [7]): 0% |
| CCCCCCCCCCCCn1ccnc1 | – | 15 µg | Activity (Bombyx mori [4]): 100%; Activity (Bombyx mori [5]): 0%; Activity (Bombyx mori [6]): 0% |
| c1ccc(CCn2ccnc2)cc1 | 0% | >80 µg | – |
| CCCCCCCCCCn1ccnc1 | – | 18 µg | – |
| CCCCCCCCCCCCCCn1ccnc1 | – | 30 µg | – |
| c1ccc(Cn2ccnc2)cc1 [BENZYLIMIDAZOLE] | 0% | >80 µg | – |
